Laboratory results as given in article PMC11676098, “New Benzofuran–Pyrazole-Based Compounds as Promising Antimicrobial Agents: Design, Synthesis, DNA Gyrase B Inhibition, and In Silico Studies” (Pharmaceuticals, 2024).

Target: T1, E. coli DNA gyrase B (Escherichia coli, UniProt P0AES6)
T1 construct: gene gyrB
Experiment: in vitro E. coli DNA gyrase enzyme inhibition assay (manufacturer's protocol)
Assay type: biochemical

Structure (SMILES) | IC50
N#Cc1c(-c2cn(-c3ccccc3)nc2-c2cc3ccccc3o2)c(C#N)c(=O)n2c1NCCN2 [compound 9, 8-(3-(Benzofuran-2-yl)-1-phenyl-1H-pyrazol-4-yl)-6-oxo-1,3,4,6-tetrahydro-2H-pyrido[1,2-b][1,2,4]triazine-7,9-dicarbonitrile] | 9.8 ± 0.21 µM
CC(=O)n1c(C)nc2c(C#N)c(-c3cn(-c4ccccc4)nc3-c3cc4ccccc4o3)c(C#N)c(=O)n21 [compound 10, 3-Acetyl-7-(3-(benzofuran-2-yl)-1-phenyl-1H-pyrazol-4-yl)-3,5-dihydro-2-methyl-5-oxo-[1,2,4]triazolo[1,5-a]pyridine-6,8-dicarbonitrile] | 32.2 ± 0.1 µM
